Data on 1 substance can be found in patent US8617563B2, “Antichlamydial agents” (Duke University, priority 2011, dated 2013).

Entries after “also recorded” stand apart in the source; their conditions may differ. Where no end group is shown, it is not given here.

One assay concerns C. muridarum. Description: C. muridarum growth in HeLa cells (recovered IFUs). Type of assay: cell-based. As to conditions: infected HeLa cells, recovered IFUs. As for the experimental part:
Cells were infected with an MOI of 1 and treated with CPAF inhibitor (SEQ ID NO:7) or control (SEQ ID NO:11) peptides at 12 hpi, fixed at 24 hpi and analyzed by IF with anti-L2 polyclonal antisera. Inclusion size was determined by measuring the inclusion diameter in μm by confocal microscopy of 50 infected cells. The number of cells with fragmented inclusions was determined by counting the number of infected cells out of 50 with more than one inclusion. (C) Sequence alignment and % sequence identify of full length CPAF and predicted inhibitory peptide sequence between C. trachomatis serovar LGV-L2, Chlamydia muridarum, and Chlamydophila caviae was determined using Geneious software (available at the Geneious website). […] GPIC or C. muridarum infected whole cell protein lysate was preincubated with SEQ ID NO:7 peptide or SEQ ID NO:11 control peptide, mixed with GST-IncC at 37° C., resolved by SDS-PAGE and stained with Coomassie blue. […] Inhibition of C. muridarum (E) and C. ceviae (F) growth was determined by counting the number of recovered IFUs. […] Inclusions were detected by IF with anti-LGV-L2 (A, B, E) antisera or anti-chlamydial LPS (F) monoclonal antibodies, and host nuclei sere detected by staining.

The subject of another assay is IL-8 secretion. Description: IL-8 secretion by infected HeLa cells (ELISA). Type of assay: cell-based, human. As to conditions: peptide 12.5 μM at 12 hpi, measured 24 hpi. As for the experimental part:
(§1) FIG. 9 depicts (A) CPAF inhibitory peptides block the generation of Chlamydia infectious particles. L2-infected HeLa cells were treated at 12 hpi with increasing concentration of peptides. EBs were harvested at 30 hpi and inclusion-forming units (IFU) were quantified on fresh cell monolayers. (B-D) CPAF activity is required to maintain inclusion integrity. The integrity of the inclusion was determined by assessing the immunolocalization of the inclusion membrane marker IncA (red) and Chlamydia (green) (B) and by transmission electron microscopy (C). […] (D) The percentage of vimentin-positive inclusions was determined by IF in infected cells treated with SEQ ID NO:7 and SEQ ID NO:11 (12 hpi) peptides at 24 hpi. (E) Activation of inflammatory cytokines upon inhibition of CPAF activity. Levels of IL-8 supernatants from Chlamydia infected cells treated with peptides as in (B-D) were determined at 24 hpi by ELISA.
Next, the mechanism underlying the block in chlamydial replication was assessed by performing microscopy analyses of Chlamydia-infected cells treated with an inhibitor of CPAF (SEQ ID NO:7). […] IL-8 secretion into the media was determined with a Human IL-8 ELISA kit (available from BioLegend).
In general terms: ELISA stands for enzyme-linked immunosorbent assay.

Assay [1] concerns Chlamydia-infected HeLa cells. Description: Inclusion integrity and vimentin cage by immunofluorescence and TEM. Type of assay: cell-based, C. trachomatis. The following applies: for Vimentin re-organization / cage around the inclusion: infected HeLa cells treated with peptide. The protocol:
as §1
FIG. 19 depicts HeLa cells infected with C. trachomatis L2, treated with SEQ ID NO:11 and SEQ ID NO:7, and harvested at 30 hpi. (A) Immunofluorescence microscopy via staining with an anti-vimentin antibody (“vimentin”) and an anti-Chlamydia L2 antibody (“L2”). […] (B) Cells were lysed in the presence of protease inhibitors, resolved by SDS-PAGE, and subjected to immunoblot analysis. Vimentin, RpoD (bacterial loading control), and GAPDH (host loading control) were visualized with substrate-specific antibodies).
For routine indirect immunofluorescence, HeLa cells were grown on glass coverslips and infected with Chlamydia at an MOI of 1. At the indicated times post-infection, cells were fixed with cold 3% formaldehyde, permeabilized with 0.1% Tx-100, blocked in 2% bovine serum albumin (BSA), and incubated with primary antibody followed by secondary fluorophore-conjugated anti-rabbit or anti-mouse IgG (available from Molecular Probes). Host and Chlamydial DNA were stained with 1 μM Hoechst (available from Invitrogen). […]

The target of another assay is CPAF (Chlamydia trachomatis serovar D, UniProt O84866). As to the kind of experiment: FRET-based CPAF inhibition assay with model substrate SEQ ID NO:10. It counts as biochemical, C. trachomatis. On the set-up: 6xHis; made in house; host or cells: E. coli BL21 (DE3), plasmid pET30b-CPAF. As for the experimental part:
FRET-based assays comprised an Abz-tagged model CPAF substrate with an additional C-terminal 3-nitrotyrosine quencher:
The 3-nitrotyrosine moiety quenches Abz fluorescence until substrate cleavage occurs. FRET-based assays were performed in optical plates in a final volume of 100 μL containing 150 mM NaCl, 50 mM Tris pH 7.50, purified CPAF (62.5 nM), varying concentrations of model CPAF substrate (0.5 mM), and varying concentrations of each candidate compound (0-240 μM). IC50 values were determined by pre-incubating CPAF with varying concentrations of candidate compound for 5 min at room temperature prior to initiation of the reaction via the addition of model CPAF substrate. Reactions were initiated and read continuously at 420 nm for 10 minutes using a fluorescence microplate reader. The percentage of substrate converted was calculated using initial velocity over the first 90 seconds and converting RFU to concentration based on a standard curve with Abz followed by analysis in Graffit 6.0 using the equation of Example 8.

Chain of CPAF (O84866 276-601): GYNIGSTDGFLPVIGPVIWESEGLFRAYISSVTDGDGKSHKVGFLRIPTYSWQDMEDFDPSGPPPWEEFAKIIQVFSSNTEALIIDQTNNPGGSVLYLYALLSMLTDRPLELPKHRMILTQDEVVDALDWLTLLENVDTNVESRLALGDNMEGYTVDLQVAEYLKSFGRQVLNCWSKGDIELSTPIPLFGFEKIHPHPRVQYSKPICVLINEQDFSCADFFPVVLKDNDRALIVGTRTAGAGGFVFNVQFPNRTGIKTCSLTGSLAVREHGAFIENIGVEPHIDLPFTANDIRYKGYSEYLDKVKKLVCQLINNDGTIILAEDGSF
Chain of CPAF (O84866 1-234, added parts left off): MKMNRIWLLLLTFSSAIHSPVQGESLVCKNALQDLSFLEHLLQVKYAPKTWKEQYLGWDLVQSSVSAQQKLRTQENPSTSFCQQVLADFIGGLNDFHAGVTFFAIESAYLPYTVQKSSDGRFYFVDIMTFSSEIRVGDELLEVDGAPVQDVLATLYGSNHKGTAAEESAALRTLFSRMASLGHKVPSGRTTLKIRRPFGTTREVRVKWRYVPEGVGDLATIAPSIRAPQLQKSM

As to “SLFYSPMVPHFWAELRNHYATSGLKRRRRRRRRR-NH2 [SEQ ID NO:7]”, the C. muridarum replication entry in the assay on C. muridarum is “blocked C. muridarum replication; also recorded: impairs growth in C. muridarum”. Besides, the IL-8 secretion result in the assay with IL-8 secretion is “increased IL-8 secretion”. Also, the “Vimentin re-organization / cage around the inclusion” value in assay [1] was “loss of vimentin re-organization around the inclusion; also recorded: increased disorder in the position of the vimentin cage”; in assay [1] (listed as peptide 4), “loss of the vimentin cage”. For the same substance, the “Inclusion structure integrity (IncA, Cap1 localisation)” value in assay [1] (prolonged treatment (>8 h)) is reported as “collapse of the inclusion structure”. Besides, on CPAF, the concentration for half-maximal inhibition (IC50) (usually the concentration at which inhibition is half-maximal) was 30 ± 6 nM.
